Experimental findings from publication PMC9866588, “Novel 7-Chloro-4-aminoquinoline-benzimidazole Hybrids as Inhibitors of Cancer Cells Growth: Synthesis, Antiproliferative Activity, in Silico ADME Predictions, and Docking” (Molecules, 2023) are described below.

Structures can show the parent of a compound that is named as a salt.

Assay [1] deals with MDCK1 (Madine–Darby canine kidney) cells. As to the kind of experiment: MTT antiproliferative assay, MDCK1. The conditions noted are these: mean ± SD of three independent experiments. The class given is cell-based. As to the method:
(§1) The growth inhibition activity was assessed according to the slightly modified procedure performed at the National Cancer Institute, Developmental Therapeutics Program.
(§2) The examined compounds were dissolved in DMSO (1 × 10^−2 M). The experiments were carried out on seven human tumor cell lines and a normal cell line. The following cell lines were used: HeLa (human cervical adenocarcinoma; purchased from ATCC), CaCo-2 (human colorectal adenocarcinoma), MCF-7 (human breast adenocarcinoma), CCRF-CEM (human acute lymphoblastic leukemia), Hut78 (T-cell lymphoma), THP-1 (acute monocytic leukemia), Burkitt lymphoma (Raji), and MDCK1 (Madine–Darby canine kidney). The MDCK1 cells were used between 24 and 26 passages.
(§3) The adherent cells were cultured in Dulbecco’s modified Eagle medium—DMEM (Gibco, Termo Fisher Scientific Inc., Leicestershire, England, UK), supplemented with 10% heat-inactivated fetal bovine serum (FBS, Gibco, Termo Fisher Scientific Inc., Leicestershire, England, UK), 2 mM glutamine, and 100U/0.1mg penicillin/streptomycin. The cells in suspension were cultured in RPMI 1640 (Gibco, Termo Fisher Scientific Inc., Leicestershire, England, UK) medium, supplemented with 10% FBS (Gibco, Termo Fisher Scientific Inc., Leicestershire, England, UK), 2 mM glutamine, 1 mM sodium pyruvate, and 10 mM HEPES. The cells were grown in a humidified atmosphere under the conditions of 37 °C/5% of CO2 gas in the CO2 incubator (IGO 150 CELLlife^TM, JOUAN, Thermo Fisher Scientific, Waltham, MA, USA).
(§4) The adherent cells (HeLa, CaCo-2, MCF-7, and MDCK-1) were plated in 96-well flat bottom plates (Greiner, Frickenhausen, Austria) at a concentration of 2 × 10^4 cells/mL. The suspension cells (Raji, THP-1, CCRF-CEM and Hut78) were plated in 96-well microtiter plates (Sarstead, Newton, NC, USA) at a concentration of 1 × 10^5 cells/mL. Twenty-four hours later, the cells were treated with test agents in […] and incubated for a further 72 h. The working dilutions were freshly prepared on the day of testing. The solvent was also tested for eventual inhibitory activity by adjusting its concentration to be the same as in the working concentrations. After 72 h of incubation, the cell growth rate was evaluated by performing the MTT assay, which detects dehydrogenase activity in viable cells. For this purpose, upon completion of the incubation period, the growth medium was discarded and 50 μL of MTT was added to each well at a concentration of 5 mg/mL. After four hours of incubation at 37 °C, the water insoluble MTT-formazan crystals were dissolved in 150 μL of dimethyl-sulfoxide (DMSO) for the adherent cells and in 10% SDS with 0.01 mol/L HCl for the cells grown in suspension. The absorbance (OD, optical density) was measured on a microplate reader (iMark, BIO RAD, Hercules, CA, USA) at 595 nm.
(§5) The percentage of live cells was calculated as follows: % = OD (sample) − OD (background)/OD (control) − OD (background) × 100.
(§6) The optical density (OD) of the background for the adherent cells is the OD of the MTT solution and DMSO; the OD (background) for the suspension cells is the OD of the culture medium with MTT and 10% SDS with 0.01 mol/L HCl; the OD (control) is the OD of the cells grown without the tested compounds.
(§7) The calculation of the GI50 value curves and QC analysis was performed using the Excel tools and GraphPadPrism software (La Jolla, CA, USA), v. 5.03. Briefly, individual concentration effect curves are generated by plotting the logarithm of the concentration of the tested compounds (X) vs. the corresponding percent inhibition values (Y) using the least squares fit. The best-fit GI50 values are calculated using log (inhibitor) versus normalized response—variable slope equation, where Y Ľ 100/(1 ţ 10 ((LogIC50 _ X) × HillSlope)). The QC criteria parameters (Z0, S:B, R2, HillSlope) were checked for every GI50 curve.
For orientation: Formazan colour is commonly taken as a measure of viable cells.

Assay [2] relates to CCRF-CEM (human acute lymphoblastic leukemia) cells. Kind of assay: MTT antiproliferative assay, CCRF-CEM. Type of assay: cell-based. Conditions: Homo sapiens, CCRF-CEM; 72 h, MTT, mean ± SD of three independent experiments. The method, then: as §1, §2, §3, §4, §5, §6, §7
Assay [3] concerns CaCo-2 (human colorectal adenocarcinoma) cells. As to the kind of experiment: MTT antiproliferative assay, CaCo-2. The class given is cell-based. The conditions noted are these: 72 h, mean ± SD of three independent experiments. As to the method:
as §1, §2, §3, §4, §5, §6, §7

Assay [4] has as its system MCF-7 (human breast adenocarcinoma) cells. As to the kind of experiment: MTT antiproliferative assay, MCF-7. Type of assay: cell-based. Conditions: MCF7, 72 h, mean ± SD of three independent experiments. The method, then: as §1, §2, §3, §4, §5, §6, §7
Assay [5] relates to Hut78 (T-cell lymphoma) cells. Kind of assay: MTT antiproliferative assay, HuT78. The class given is cell-based, human. The conditions noted are these: Homo sapiens, HuT78; 72 h, MTT, mean ± SD of three independent experiments. As to the method:
as §1, §2, §3, §4, §5, §6, §7

For assay [6], the system named is HeLa (human cervical adenocarcinoma) cells. Kind of assay: MTT antiproliferative assay, HeLa. The class given is cell-based. Conditions: 72 h, mean ± SD of three independent experiments. As to the method:
as §1, §2, §3, §4, §5, §6, §7

For assay [7], the system named is THP-1 (acute monocytic leukemia) cells. As to the kind of experiment: MTT antiproliferative assay, THP-1. Type of assay: cell-based, human. The conditions noted are these: Homo sapiens, THP-1; 72 h, MTT, mean ± SD of three independent experiments; read-out: GI50 THP1. The method, then: as §1, §2, §3, §4, §5, §6, §7
Assay [8] relates to Raji (Burkitt lymphoma) cells. Kind of assay: MTT antiproliferative assay, Raji. Type of assay: cell-based, human. The conditions noted are these: Homo sapiens, Raji; 72 h, MTT, mean ± SD of three independent experiments. The method, then:
as §1, §2, §3, §4, §5, §6, §7

In assay [9] the test system is normal (MDCK1) and tumor cell lines. Kind of assay: MTT antiproliferative assay, ranges stated over several cell lines. The class given is cell-based. The method, then: as §1, §2, §3, §4, §5, §6, §7
[10] abbreviates: Canis lupus familiaris, MDCK1, 72 h.

As usually defined, the GI50 is the concentration that inhibits growth by half.

As for `N=C(N)c1ccc2[nH]c(-c3cccc(Nc4ccnc5cc(Cl)ccc45)c3)nc2c1` [Compound 5a, 2-(3-(7-chloroquinolin-4-ylamino)phenyl)-1H-benzo[d]imidazole-5-carboximidamide trihydrochloride], the GI50 in assay [1] (setting [10]), in [2], in [3], in assay [4], in assay [5] and in assay [6] was above 100 µM in each case. Further, the concentration for 50% growth inhibition (GI50) in [7] and in assay [8] was above 100 µM throughout.
With `CC(C)NC(=N)c1ccc2[nH]c(-c3ccc(C(=O)NCCNc4ccnc5cc(Cl)ccc45)cc3)nc2c1` [Compound 12b, 4-(5-(N-isopropylcarbamimidoyl)-1H-benzo[d]imidazol-2-yl)-N-(2-(7-chloroquinolin-4-ylamino)ethyl)benzamide trihydrochloride], the GI50 in assay [1] (setting [10]) came out at 42.9 ± 5.1 µM; in assay [2], 43.3 ± 17.5 µM; in assay [3], 38.7 ± 12.4 µM; in [4] it was 100 µM; in assay [5] it was 5.6 ± 2.7 µM; in assay [6], 100 µM. Further, the GI50 in assay [7] was determined as 100 µM; in assay [8] it was 12.8 ± 3.7 µM.
On to `Clc1ccc2c(Nc3cccc(-c4nc5cc(C6=NCCN6)ccc5[nH]4)c3)ccnc2c1` [Compound 5c, 7-chloro-N-(3-(5-(4,5-dihydro-1H-imidazol-2-yl)-1H-benzo[d]imidazol-2-yl)phenyl)quinolin-4-amine trihydrochloride], for which the GI50 was above 100 µM in assay [1] (setting [10]); above 100 µM in assay [2]; above 100 µM in assay [3]; above 100 µM in [4]; 66.2 ± 14.6 µM in [5]; above 100 µM in assay [6]. Moreover, the GI50 in assay [7] and in assay [8] was above 100 µM each time.
Regarding `CC(C)NC(=N)c1ccc2[nH]c(-c3ccc(N4CCN(c5ccnc6cc(Cl)ccc56)CC4)cc3)nc2c1` [Compound 8b, 2-(4-(4-(7-chloroquinolin-4-yl)piperazin-1-yl)phenyl)-N-isopropyl-1H-benzo[d]imidazole-5-carboxamidine dihydrochloride], the GI50 in [1] (setting [10]) came out at 58.8 ± 9.8 µM; in assay [2], 39.6 ± 9.2 µM; in assay [3], 100 µM; in assay [4], 30.9 ± 2.7 µM; in assay [5], 26.2 ± 1.6 µM; in assay [6], 21 ± 1.9 µM. For the same molecule, the figures for the GI50 in assay [7] and in assay [8] were above 100 µM and 42.9 ± 8.8 µM, respectively.
As for `N=C(N)c1ccc2[nH]c(-c3ccc(N4CCN(c5ccnc6cc(Cl)ccc56)CC4)cc3)nc2c1` [Compound 8a, 2-(4-(4-(7-chloroquinolin-4-yl)piperazin-1-yl)phenyl)-1H-benzo[d]imidazole-5-carboxamidine dihydrochloride], the GI50 was 42.7 ± 10.8 µM in [1] (setting [10]); 32.1 ± 3.8 µM in assay [2]; above 100 µM in [3]; 20.7 ± 8.6 µM in assay [4]; 20.2 ± 6.1 µM in assay [5]; 36.3 ± 9.6 µM in assay [6]. Besides, the GI50 in [7] is above 100 µM; in assay [8], 37.7 ± 8.6 µM.
Consider `Clc1ccc2c(N3CCN(c4ccc(-c5nc6cc(C7=NCCN7)ccc6[nH]5)cc4)CC3)ccnc2c1` [Compound 8c, 7-chloro-4-(4-(4-(5-(4,5-dihydro-1H-imidazol-2-yl)-1H-benzo[d]imidazol-2-yl)phenyl)piperazin-1-yl)quinoline dihydrochloride], for which the GI50 in assay [1] (setting [10]) came out at 30.1 ± 5 µM; in assay [2], 25.4 ± 11.5 µM; in [3] it was 100 µM; in [4], 24.8 ± 2.2 µM; in [5] it was 27.6 ± 4.7 µM; in assay [6] it was 41.8 ± 8.4 µM. For the same molecule, the GI50 was determined as 71.3 ± 11.4 µM in assay [7] and 43.9 ± 16.2 µM in assay [8].
As for `Clc1ccc2[nH]c(-c3cccc(Nc4ccnc5cc(Cl)ccc45)c3)nc2c1` [Compound 5e, 7-chloro-N-(3-(5-chloro-1H-benzo[d]imidazol-2-yl)phenyl)quinolin-4-amine], the GI50 in assay [1] (72 h) is 11.4 ± 6.2 µM; in assay [1] (setting [10]), 11.4 to 20.4 µM; in [2], 15.6 ± 3.4 µM; in assay [3], 1.1 ± 0.1 µM; in assay [4] it was 11.1 ± 1.6 µM; in [5], 6.7 ± 0.5 µM. For the same molecule, the GI50 in [6] was 11.8 ± 1.2 µM; in assay [7], 2.1 ± 0.9 µM; in assay [9] (MDCK1, range over tumor cell lines, read-out: GI50 range, tumor cell lines), 0.4 to 15.6 µM; in assay [8], 5.4 ± 2 µM. The “GI50 / inhibitory potential, normal and tumor cells” value in [9] (over all tested cell lines) is recorded as “strong antiproliferative activity”.
As to `O=c1[nH]cc(F)c(=O)[nH]1` [Compound 5-FU, 5-Fluorouracil, reference compound], the GI50 was 74 ± 3.1 µM in assay [1] (setting [10]); above 50 µM in [2]; 5.9 ± 0.7 µM in [3]; 30.2 ± 4.7 µM in [4]; above 100 µM in assay [5]; 8.2 ± 1.9 µM in assay [6]. For the same molecule, the values for the GI50 in assay [7] and in [8] were 76.3 ± 0.5 µM and above 100 µM, respectively.
Regarding `N=C(N)c1ccc2[nH]c(-c3ccc(C(=O)NCCNc4ccnc5cc(Cl)ccc45)cc3)nc2c1` [Compound 12a, 4-(5-carbamimidoyl-1H-benzo[d]imidazol-2-yl)-N-(2-(7-chloroquinolin-4-ylamino)ethyl)benzamide trihydrochloride], the GI50 stood at 21.6 ± 3.2 µM in [1] (setting [10]); 20 ± 6.8 µM in [2]; 24.7 ± 6.2 µM in assay [3]; 39.1 ± 5.6 µM in assay [4]; 4.1 ± 2 µM in assay [5]; 11.1 ± 3.8 µM in [6]. The GI50 in assay [7] was above 100 µM; in assay [8], 8.9 ± 3.3 µM.
As to `O=C(NCCNc1ccnc2cc(Cl)ccc12)c1ccc(-c2nc3cc(C4=NCCN4)ccc3[nH]2)cc1` [Compound 12c, N-(2-(7-chloroquinolin-4-ylamino)ethyl)-4-(5-(4,5-dihydro-1H-imidazol-2-yl)-1H-benzo[d]imidazol-2-yl)benzamide trihydrochloride], the concentration for 50% growth inhibition (GI50) in assay [1] (setting [10]) came out at 39.6 ± 2.2 µM; in assay [2], 56.3 ± 9 µM; in assay [3] it was 52 ± 9.1 µM; in [4] it was 100 µM; in [5], 4.4 ± 1 µM; in assay [6], 33.2 ± 5.8 µM. Moreover, the GI50 in [7] was above 100 µM; in assay [8] it was 20.8 ± 1.8 µM.
In the case of `CC(C)NC(=N)c1ccc2[nH]c(-c3cccc(Nc4ccnc5cc(Cl)ccc45)c3)nc2c1` [Compound 5b, 2-(3-(7-chloroquinolin-4-ylamino)phenyl)-N-isopropyl-1H-benzo[d]imidazole-5-carboximidamide trihydrochloride], the GI50 in assay [1] (setting [10]) was above 100 µM; in [2], above 100 µM; in [3], above 100 µM; in [4] it was above 100 µM; in assay [5], 41.8 ± 8.2 µM; in assay [6], above 100 µM. The GI50 in assay [7] and in [8] was above 100 µM throughout.
